Reference: patent US8192962B2, “Processes for detecting toxic substances” (Daikin Industries, Ltd., priority 2001, dated 2012)

Tested on: Genes belonging to other category
Test: DNA chip mRNA expression in yeast, genes belonging to other category (Table 9)
Type: cell-based, Saccharomyces cerevisiae S288C
Summary of the method: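 Whole-genome yeast DNA chip hybridization (65° C., >12 h) of Cy-labeled cDNA from S288C cells exposed 2 h at 25° C. to a sub-lethal toxicant dose in YPD; value is intensity relative to chemical-free control.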

For Na2As [(1)], the “The level of expressed mRNA in the presence of chemical substance/The level of expressed mRNA in the absence of chemical substance” value (yeast gene YAR010C) was 0.8, the “The level of expressed mRNA in the presence of chemical substance/The level of expressed mRNA in the absence of chemical substance” value (yeast gene YBL005W-A) was 1.0 and the “The level of expressed mRNA in the presence of chemical substance/The level of expressed mRNA in the absence of chemical substance” value (yeast gene YBL041W) was 1.2. For the same substance, the “The level of expressed mRNA in the presence of chemical substance/The level of expressed mRNA in the absence of chemical substance” value (yeast gene YBL043W) was 1.2, the “The level of expressed mRNA in the presence of chemical substance/The level of expressed mRNA in the absence of chemical substance” value (yeast gene YBL078C) was 2.3 and the “The level of expressed mRNA in the presence of chemical substance/The level of expressed mRNA in the absence of chemical substance” value (yeast gene YBR214W) was 0.9. The “The level of expressed mRNA in the presence of chemical substance/The level of expressed mRNA in the absence of chemical substance” value (yeast gene YCL020W) was 1.1, the “The level of expressed mRNA in the presence of chemical substance/The level of expressed mRNA in the absence of chemical substance” value (yeast gene YCL027W) was 0.7 and the “The level of expressed mRNA in the presence of chemical substance/The level of expressed mRNA in the absence of chemical substance” value (yeast gene YCR004C) was 1.7. For the same substance, the “The level of expressed mRNA in the presence of chemical substance/The level of expressed mRNA in the absence of chemical substance” value (yeast gene YCR071C) was 1.1, the “The level of expressed mRNA in the presence of chemical substance/The level of expressed mRNA in the absence of chemical substance” value (yeast gene YCR088W) was 0.9 and the “The level of expressed mRNA in the presence of chemical substance/The level of expressed mRNA in the absence of chemical substance” value (yeast gene YDL008W) was 1.1. For the same substance, the “The level of expressed mRNA in the presence of chemical substance/The level of expressed mRNA in the absence of chemical substance” value (yeast gene YDL238C) was 0.7, the “The level of expressed mRNA in the presence of chemical substance/The level of expressed mRNA in the absence of chemical substance” value (yeast gene YDR055W) was 1.7 and the “The level of expressed mRNA in the presence of chemical substance/The level of expressed mRNA in the absence of chemical substance” value (yeast gene YDR084C) was 0.9. For the same substance, the “The level of expressed mRNA in the presence of chemical substance/The level of expressed mRNA in the absence of chemical substance” value (yeast gene YDR085C) was 1.9, the “The level of expressed mRNA in the presence of chemical substance/The level of expressed mRNA in the absence of chemical substance” value (yeast gene YDR104C) was 0.8 and the “The level of expressed mRNA in the presence of chemical substance/The level of expressed mRNA in the absence of chemical substance” value (yeast gene YDR115W) was 1.3. The “The level of expressed mRNA in the presence of chemical substance/The level of expressed mRNA in the absence of chemical substance” value (yeast gene YDR259C) was 1.4, the “The level of expressed mRNA in the presence of chemical substance/The level of expressed mRNA in the absence of chemical substance” value (yeast gene YDR315C) was 1.0 and the “The level of expressed mRNA in the presence of chemical substance/The level of expressed mRNA in the absence of chemical substance” value (yeast gene YDR358W) was 0.7. For the same substance, the “The level of expressed mRNA in the presence of chemical substance/The level of expressed mRNA in the absence of chemical substance” value (yeast gene YDR388W) was 0.7, the “The level of expressed mRNA in the presence of chemical substance/The level of expressed mRNA in the absence of chemical substance” value (yeast gene YDR432W) was 0.5 and the “The level of expressed mRNA in the presence of chemical substance/The level of expressed mRNA in the absence of chemical substance” value (yeast gene YDR481C) was 0.7. The “The level of expressed mRNA in the presence of chemical substance/The level of expressed mRNA in the absence of chemical substance” value (yeast gene YDR510W) was 1.0, the “The level of expressed mRNA in the presence of chemical substance/The level of expressed mRNA in the absence of chemical substance” value (yeast gene YEL042W) was 0.6 and the “The level of expressed mRNA in the presence of chemical substance/The level of expressed mRNA in the absence of chemical substance” value (yeast gene YEL066W) was 2.0. For the same substance, the “The level of expressed mRNA in the presence of chemical substance/The level of expressed mRNA in the absence of chemical substance” value (yeast gene YER039C) was 1.0, the “The level of expressed mRNA in the presence of chemical substance/The level of expressed mRNA in the absence of chemical substance” value (yeast gene YER107C) was 0.9 and the “The level of expressed mRNA in the presence of chemical substance/The level of expressed mRNA in the absence of chemical substance” value (yeast gene YER130C) was 0.9. For the same substance, the “The level of expressed mRNA in the presence of chemical substance/The level of expressed mRNA in the absence of chemical substance” value (yeast gene YFL022C) was 0.8, the “The level of expressed mRNA in the presence of chemical substance/The level of expressed mRNA in the absence of chemical substance” value (yeast gene YFL028C) was 1.2 and the “The level of expressed mRNA in the presence of chemical substance/The level of expressed mRNA in the absence of chemical substance” value (yeast gene YFL043C) was 1.0. For the same substance, the “The level of expressed mRNA in the presence of chemical substance/The level of expressed mRNA in the absence of chemical substance” value (yeast gene YGL158W) was 1.1, the “The level of expressed mRNA in the presence of chemical substance/The level of expressed mRNA in the absence of chemical substance” value (yeast gene YGL229C) was 0.6 and the “The level of expressed mRNA in the presence of chemical substance/The level of expressed mRNA in the absence of chemical substance” value (yeast gene YGR136W) was 0.9. The “The level of expressed mRNA in the presence of chemical substance/The level of expressed mRNA in the absence of chemical substance” value (yeast gene YGR189C) was 1.1, the “The level of expressed mRNA in the presence of chemical substance/The level of expressed mRNA in the absence of chemical substance” value (yeast gene YGR213C) was 5.4 and the “The level of expressed mRNA in the presence of chemical substance/The level of expressed mRNA in the absence of chemical substance” value (yeast gene YGR257C) was 0.7. The “The level of expressed mRNA in the presence of chemical substance/The level of expressed mRNA in the absence of chemical substance” value (yeast gene YHR004C) was 0.9, the “The level of expressed mRNA in the presence of chemical substance/The level of expressed mRNA in the absence of chemical substance” value (yeast gene YHR071W) was 1.5 and the “The level of expressed mRNA in the presence of chemical substance/The level of expressed mRNA in the absence of chemical substance” value (yeast gene YHR139C) was 3.0. The “The level of expressed mRNA in the presence of chemical substance/The level of expressed mRNA in the absence of chemical substance” value (yeast gene YHR142W) was 1.5, the “The level of expressed mRNA in the presence of chemical substance/The level of expressed mRNA in the absence of chemical substance” value (yeast gene YIL123W) was 1.0 and the “The level of expressed mRNA in the presence of chemical substance/The level of expressed mRNA in the absence of chemical substance” value (yeast gene YIL140W) was 0.7. For the same substance, the “The level of expressed mRNA in the presence of chemical substance/The level of expressed mRNA in the absence of chemical substance” value (yeast gene YJL073W) was 0.8, the “The level of expressed mRNA in the presence of chemical substance/The level of expressed mRNA in the absence of chemical substance” value (yeast gene YJL089W) was 1.1 and the “The level of expressed mRNA in the presence of chemical substance/The level of expressed mRNA in the absence of chemical substance” value (yeast gene YJL116C) was 0.9. The “The level of expressed mRNA in the presence of chemical substance/The level of expressed mRNA in the absence of chemical substance” value (yeast gene YJR004C) was 0.2 and the “The level of expressed mRNA in the presence of chemical substance/The level of expressed mRNA in the absence of chemical substance” value (yeast gene YJR086W) was 1.2.
